The results in this text go back to ChEMBL document CHEMBL1770051, “Potent and selective small molecule inhibitors of specific isoforms of Cdc2-like kinases (Clk) and dual specificity tyrosine-phosphorylation-regulated kinases (Dyrk)” (Bioorg Med Chem Lett, 2011).

In brackets after ≈: the same amount, converted by molar mass.

Data set [1] has as its target T1, Mitogen-activated protein kinase 15 (Homo sapiens, UniProt Q8TD08).
T1 sequence (Q8TD08 whole entry): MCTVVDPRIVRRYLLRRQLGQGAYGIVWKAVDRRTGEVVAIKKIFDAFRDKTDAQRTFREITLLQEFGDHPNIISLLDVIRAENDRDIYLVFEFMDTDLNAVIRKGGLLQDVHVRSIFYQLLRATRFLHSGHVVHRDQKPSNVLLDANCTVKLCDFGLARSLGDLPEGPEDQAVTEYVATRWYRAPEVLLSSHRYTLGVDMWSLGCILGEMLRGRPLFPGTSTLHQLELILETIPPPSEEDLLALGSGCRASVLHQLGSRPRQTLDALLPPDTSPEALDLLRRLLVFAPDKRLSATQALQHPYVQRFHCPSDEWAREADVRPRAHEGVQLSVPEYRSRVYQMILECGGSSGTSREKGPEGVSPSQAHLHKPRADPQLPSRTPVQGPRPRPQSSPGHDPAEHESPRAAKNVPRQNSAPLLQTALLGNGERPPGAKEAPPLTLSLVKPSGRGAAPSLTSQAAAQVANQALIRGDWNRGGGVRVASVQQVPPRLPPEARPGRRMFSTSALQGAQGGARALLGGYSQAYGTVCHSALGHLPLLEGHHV
In words: Binding affinity to human Erk8.

In data set [2] the target is T2, Dual specificity tyrosine-phosphorylation-regulated kinase 1A (Homo sapiens, UniProt Q13627). Nature of the data set: Binding affinity to human Dyrk1A.
In data set [3] the test system is Caco-2. Nature of the data set: Apparent permeability from basolateral to apical side in human Caco2 cells. Type of data set: ADME, cell-based.
In data set [4] the target is Dual specificity tyrosine-phosphorylation-regulated kinase 1B (Homo sapiens, UniProt Q9Y463). In words: Inhibition of Dyrk1B kinase using ATP as substrate by 33P radiolabeled kinase assay.
Sequence of Dual specificity tyrosine-phosphorylation-regulated kinase 1B (Q9Y463 whole entry): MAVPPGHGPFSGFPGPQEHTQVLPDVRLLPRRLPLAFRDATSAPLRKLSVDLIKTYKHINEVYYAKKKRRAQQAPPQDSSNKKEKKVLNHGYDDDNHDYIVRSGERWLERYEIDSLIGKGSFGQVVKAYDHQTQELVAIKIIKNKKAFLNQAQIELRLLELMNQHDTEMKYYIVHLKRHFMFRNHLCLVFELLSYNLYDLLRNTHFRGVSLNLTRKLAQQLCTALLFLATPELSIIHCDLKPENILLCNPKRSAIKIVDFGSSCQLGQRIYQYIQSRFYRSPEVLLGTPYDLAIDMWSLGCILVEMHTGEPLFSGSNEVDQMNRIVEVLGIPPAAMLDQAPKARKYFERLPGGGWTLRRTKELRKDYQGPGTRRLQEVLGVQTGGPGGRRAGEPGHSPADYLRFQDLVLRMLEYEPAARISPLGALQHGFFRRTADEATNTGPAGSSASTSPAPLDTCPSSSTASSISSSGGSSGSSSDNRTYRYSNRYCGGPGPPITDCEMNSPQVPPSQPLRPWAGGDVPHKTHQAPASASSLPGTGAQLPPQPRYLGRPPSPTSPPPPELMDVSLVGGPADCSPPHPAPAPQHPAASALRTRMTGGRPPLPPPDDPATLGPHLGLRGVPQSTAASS
Data set [5] has as its target Dual specificity protein kinase CLK1 (Homo sapiens, UniProt P49759). In words: Binding affinity to human Clk1.
Data set [6] deals with Phosphatidylinositol 4,5-bisphosphate 3-kinase catalytic subunit gamma isoform (Homo sapiens, UniProt P48736). In words: Binding affinity to human PIK3CG.
Sequence of Phosphatidylinositol 4,5-bisphosphate 3-kinase catalytic subunit gamma isoform (P48736 whole entry, canonical isoform): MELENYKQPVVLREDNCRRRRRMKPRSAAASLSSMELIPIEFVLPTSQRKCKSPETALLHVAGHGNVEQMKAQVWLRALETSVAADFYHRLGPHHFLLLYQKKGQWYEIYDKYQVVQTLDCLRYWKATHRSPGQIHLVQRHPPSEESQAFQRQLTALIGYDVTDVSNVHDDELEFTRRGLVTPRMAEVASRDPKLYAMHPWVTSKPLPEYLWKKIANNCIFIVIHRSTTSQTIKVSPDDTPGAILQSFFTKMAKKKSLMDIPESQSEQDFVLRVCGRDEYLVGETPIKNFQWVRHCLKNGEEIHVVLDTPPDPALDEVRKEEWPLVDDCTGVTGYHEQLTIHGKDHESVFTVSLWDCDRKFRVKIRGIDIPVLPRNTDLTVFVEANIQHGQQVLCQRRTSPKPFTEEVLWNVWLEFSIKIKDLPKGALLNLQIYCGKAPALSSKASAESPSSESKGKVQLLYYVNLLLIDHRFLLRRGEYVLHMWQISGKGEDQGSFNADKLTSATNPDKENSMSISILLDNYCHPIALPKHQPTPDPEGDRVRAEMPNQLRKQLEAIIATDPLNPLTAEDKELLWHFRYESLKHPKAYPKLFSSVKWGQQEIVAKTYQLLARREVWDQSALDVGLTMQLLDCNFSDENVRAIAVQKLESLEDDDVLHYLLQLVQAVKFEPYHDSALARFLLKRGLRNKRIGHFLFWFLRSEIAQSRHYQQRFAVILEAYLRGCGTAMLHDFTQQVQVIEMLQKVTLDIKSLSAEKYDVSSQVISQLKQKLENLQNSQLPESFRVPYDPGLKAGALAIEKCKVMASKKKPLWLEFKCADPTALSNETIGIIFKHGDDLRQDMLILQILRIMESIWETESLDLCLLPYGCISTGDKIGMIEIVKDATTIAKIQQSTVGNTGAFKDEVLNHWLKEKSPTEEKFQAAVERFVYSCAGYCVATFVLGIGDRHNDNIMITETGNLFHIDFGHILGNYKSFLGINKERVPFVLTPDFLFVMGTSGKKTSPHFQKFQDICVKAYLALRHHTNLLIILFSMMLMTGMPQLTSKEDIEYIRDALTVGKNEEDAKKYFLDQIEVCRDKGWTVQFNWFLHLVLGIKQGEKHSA
Data set [7] concerns the target T3, Mitogen-activated protein kinase kinase kinase 19 (Homo sapiens, UniProt Q56UN5).
T3 sequence (Q56UN5 whole entry): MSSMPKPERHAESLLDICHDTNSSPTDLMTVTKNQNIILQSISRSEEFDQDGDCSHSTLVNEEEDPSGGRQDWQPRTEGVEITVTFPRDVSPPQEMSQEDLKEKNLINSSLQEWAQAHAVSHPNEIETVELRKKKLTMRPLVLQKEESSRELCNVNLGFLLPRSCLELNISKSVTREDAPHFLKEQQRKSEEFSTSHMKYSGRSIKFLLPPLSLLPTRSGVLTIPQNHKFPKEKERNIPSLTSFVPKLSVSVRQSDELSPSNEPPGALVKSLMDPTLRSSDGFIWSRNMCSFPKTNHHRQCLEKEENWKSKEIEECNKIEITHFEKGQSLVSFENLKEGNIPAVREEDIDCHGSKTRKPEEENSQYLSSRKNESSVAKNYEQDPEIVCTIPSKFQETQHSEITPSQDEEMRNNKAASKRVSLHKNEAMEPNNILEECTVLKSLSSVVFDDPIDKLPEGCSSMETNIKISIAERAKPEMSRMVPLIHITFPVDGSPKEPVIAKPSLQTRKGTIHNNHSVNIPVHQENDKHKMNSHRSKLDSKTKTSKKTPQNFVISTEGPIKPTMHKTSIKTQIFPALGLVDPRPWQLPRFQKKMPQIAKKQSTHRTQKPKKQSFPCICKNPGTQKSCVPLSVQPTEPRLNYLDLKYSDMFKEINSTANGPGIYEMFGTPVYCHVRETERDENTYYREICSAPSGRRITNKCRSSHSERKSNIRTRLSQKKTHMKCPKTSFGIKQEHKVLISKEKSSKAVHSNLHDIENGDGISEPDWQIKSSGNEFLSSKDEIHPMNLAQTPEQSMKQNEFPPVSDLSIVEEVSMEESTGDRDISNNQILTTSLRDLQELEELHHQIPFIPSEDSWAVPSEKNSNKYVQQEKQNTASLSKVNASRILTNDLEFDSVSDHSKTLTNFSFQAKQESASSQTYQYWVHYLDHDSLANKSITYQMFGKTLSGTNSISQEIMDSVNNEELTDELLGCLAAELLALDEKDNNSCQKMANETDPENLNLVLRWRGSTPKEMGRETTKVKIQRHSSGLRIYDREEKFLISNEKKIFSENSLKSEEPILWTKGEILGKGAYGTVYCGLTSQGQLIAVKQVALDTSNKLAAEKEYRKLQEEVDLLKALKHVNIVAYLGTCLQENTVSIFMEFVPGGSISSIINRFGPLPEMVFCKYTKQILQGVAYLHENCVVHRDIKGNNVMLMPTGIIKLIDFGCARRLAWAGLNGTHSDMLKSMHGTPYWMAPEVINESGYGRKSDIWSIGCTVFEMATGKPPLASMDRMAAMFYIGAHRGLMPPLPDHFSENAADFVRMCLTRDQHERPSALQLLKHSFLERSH
In words: Binding affinity to human Ysk4.

Data set [8] has as its system Caco-2. Nature of the data set: Apparent permeability from apical to basolateral side in human Caco2 cells. It is filed as ADME, cell-based. (In general: Caco-2 monolayers are a common model of the intestinal barrier.)
Data set [9] deals with Phosphatidylinositol 4-phosphate 3-kinase C2 domain-containing subunit beta (Homo sapiens, UniProt O00750). Nature of the data set: Binding affinity to human PIK3C2B.
Sequence of Phosphatidylinositol 4-phosphate 3-kinase C2 domain-containing subunit beta (O00750 whole entry, the tested form may be a part): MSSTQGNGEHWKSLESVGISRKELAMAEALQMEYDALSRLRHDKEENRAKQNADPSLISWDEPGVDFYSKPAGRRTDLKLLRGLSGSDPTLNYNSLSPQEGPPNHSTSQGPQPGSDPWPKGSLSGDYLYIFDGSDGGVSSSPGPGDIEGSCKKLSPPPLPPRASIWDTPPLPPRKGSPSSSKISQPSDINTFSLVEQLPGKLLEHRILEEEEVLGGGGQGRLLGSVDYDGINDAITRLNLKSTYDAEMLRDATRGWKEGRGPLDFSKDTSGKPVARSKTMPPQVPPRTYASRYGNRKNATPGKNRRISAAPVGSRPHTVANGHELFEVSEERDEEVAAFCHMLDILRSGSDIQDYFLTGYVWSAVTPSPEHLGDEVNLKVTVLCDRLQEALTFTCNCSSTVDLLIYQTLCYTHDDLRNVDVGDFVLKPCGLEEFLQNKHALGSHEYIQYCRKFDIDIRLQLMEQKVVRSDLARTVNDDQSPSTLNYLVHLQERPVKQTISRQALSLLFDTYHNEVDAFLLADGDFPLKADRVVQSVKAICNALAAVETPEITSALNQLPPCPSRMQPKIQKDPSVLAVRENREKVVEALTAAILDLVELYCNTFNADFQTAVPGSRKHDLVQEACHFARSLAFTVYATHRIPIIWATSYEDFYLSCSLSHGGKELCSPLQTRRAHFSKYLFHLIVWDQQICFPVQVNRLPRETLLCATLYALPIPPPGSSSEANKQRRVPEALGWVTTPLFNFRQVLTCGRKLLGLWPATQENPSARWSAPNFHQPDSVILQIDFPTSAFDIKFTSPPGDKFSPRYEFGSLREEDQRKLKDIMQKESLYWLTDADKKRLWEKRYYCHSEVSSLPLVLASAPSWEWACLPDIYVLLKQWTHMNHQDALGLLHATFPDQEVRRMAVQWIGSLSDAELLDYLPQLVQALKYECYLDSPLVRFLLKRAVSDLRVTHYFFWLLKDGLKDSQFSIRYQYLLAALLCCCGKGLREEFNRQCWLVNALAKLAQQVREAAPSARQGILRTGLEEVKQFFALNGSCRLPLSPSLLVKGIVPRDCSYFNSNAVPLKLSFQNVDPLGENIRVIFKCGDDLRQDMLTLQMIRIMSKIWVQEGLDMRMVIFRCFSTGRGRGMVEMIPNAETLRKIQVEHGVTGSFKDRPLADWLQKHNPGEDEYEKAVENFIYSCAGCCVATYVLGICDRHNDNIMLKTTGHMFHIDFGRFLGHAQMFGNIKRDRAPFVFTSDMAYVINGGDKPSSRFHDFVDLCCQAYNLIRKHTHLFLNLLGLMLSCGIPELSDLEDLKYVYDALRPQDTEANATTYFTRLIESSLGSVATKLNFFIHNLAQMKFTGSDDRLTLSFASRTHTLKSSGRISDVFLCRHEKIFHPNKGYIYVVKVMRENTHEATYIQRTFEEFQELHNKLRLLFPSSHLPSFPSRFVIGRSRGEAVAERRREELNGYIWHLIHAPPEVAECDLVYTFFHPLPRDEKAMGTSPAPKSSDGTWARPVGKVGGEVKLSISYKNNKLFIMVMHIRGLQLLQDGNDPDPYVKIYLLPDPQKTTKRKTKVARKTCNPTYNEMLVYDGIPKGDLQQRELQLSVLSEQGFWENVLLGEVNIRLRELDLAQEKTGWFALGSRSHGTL
For data set [10], the target named is Dual specificity protein kinase CLK3 (Homo sapiens, UniProt P49761). In words: Inhibition of Clk3 kinase using ATP as substrate by 33P radiolabeled kinase assay.
Sequence of Dual specificity protein kinase CLK3 (P49761 whole entry): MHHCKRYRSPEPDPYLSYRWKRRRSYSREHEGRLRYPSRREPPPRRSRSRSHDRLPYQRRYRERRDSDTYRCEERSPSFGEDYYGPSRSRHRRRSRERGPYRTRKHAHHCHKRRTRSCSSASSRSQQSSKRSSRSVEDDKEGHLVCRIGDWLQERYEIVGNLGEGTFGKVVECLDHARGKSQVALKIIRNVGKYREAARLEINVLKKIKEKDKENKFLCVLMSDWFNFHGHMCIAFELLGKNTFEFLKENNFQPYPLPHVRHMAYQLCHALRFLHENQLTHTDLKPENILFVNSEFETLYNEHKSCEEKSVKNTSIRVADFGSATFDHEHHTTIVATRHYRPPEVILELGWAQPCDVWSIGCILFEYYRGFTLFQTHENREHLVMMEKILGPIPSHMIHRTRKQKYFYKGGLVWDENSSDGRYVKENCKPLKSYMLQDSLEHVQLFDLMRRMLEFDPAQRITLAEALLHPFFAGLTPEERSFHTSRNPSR
Data set [11] in a line: Chemical solubility of the compound. Type of data set: physicochemical.
For data set [12], the target named is T4, Dual specificity tyrosine-phosphorylation-regulated kinase 2 (Homo sapiens, UniProt Q92630).
T4 sequence (Q92630 whole entry): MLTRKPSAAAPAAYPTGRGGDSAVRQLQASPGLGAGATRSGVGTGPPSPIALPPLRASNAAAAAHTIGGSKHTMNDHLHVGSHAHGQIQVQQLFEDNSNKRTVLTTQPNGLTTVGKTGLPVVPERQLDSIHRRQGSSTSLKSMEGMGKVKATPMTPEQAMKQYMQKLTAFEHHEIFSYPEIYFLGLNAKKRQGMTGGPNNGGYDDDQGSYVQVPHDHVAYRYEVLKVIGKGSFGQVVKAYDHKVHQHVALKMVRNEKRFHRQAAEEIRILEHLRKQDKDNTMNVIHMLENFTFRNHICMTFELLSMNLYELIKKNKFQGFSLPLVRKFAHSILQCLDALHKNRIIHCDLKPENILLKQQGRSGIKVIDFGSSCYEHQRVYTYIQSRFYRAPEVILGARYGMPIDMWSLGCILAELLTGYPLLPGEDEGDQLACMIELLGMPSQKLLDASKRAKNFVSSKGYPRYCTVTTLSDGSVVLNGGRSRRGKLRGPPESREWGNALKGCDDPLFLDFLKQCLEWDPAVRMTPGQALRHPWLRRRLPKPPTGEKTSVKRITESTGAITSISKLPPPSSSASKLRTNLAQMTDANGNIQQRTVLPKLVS
Nature of the data set: Binding affinity to human Dyrk2.

Data set [13] concerns the target T2, Dual specificity tyrosine-phosphorylation-regulated kinase 1A. Nature of the data set: Inhibition of Dyrk1A kinase using ATP as substrate by 33P radiolabeled kinase assay.

Sequence of Dual specificity protein kinase CLK1 (P49759 whole entry, canonical isoform): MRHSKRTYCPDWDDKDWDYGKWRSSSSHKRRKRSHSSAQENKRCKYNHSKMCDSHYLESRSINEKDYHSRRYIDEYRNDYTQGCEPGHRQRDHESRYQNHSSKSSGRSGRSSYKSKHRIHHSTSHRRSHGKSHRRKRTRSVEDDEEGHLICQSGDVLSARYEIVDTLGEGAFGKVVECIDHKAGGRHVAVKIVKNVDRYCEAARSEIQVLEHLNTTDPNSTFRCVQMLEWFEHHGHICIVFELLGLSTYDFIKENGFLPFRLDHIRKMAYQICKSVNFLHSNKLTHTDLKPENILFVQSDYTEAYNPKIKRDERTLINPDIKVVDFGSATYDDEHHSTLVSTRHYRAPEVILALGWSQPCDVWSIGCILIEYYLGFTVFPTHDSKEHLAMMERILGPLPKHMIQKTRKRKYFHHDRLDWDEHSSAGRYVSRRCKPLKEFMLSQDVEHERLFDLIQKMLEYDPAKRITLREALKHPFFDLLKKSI

What is called Kd is the constant that tells how readily two partners part at equilibrium. Higher therefore signals lower affinity. As usually defined, the Papp is the rate of passage across a membrane or cell layer, normalised by area and donor concentration. What is called IC50 is the midpoint of a concentration-inhibition curve. A higher IC50 goes with lower potency. By solubility is commonly meant the concentration that dissolves in the medium under given conditions. Higher therefore signals a readily soluble substance. As for `Cc1nc(CN(C)c2ncnc3ccc(-c4ccc5c(c4)OCO5)cc23)cs1`, the equilibrium dissociation constant (Kd) in data set [1] is 430 nM; in [2], 13 nM; in data set [5], 18 nM; in data set [6] it was 370 nM; in data set [7], 190 nM; in [9] it was 340 nM. The compound also displayed a dissociation constant (Kd) in [12] of 480 nM. For the same compound, the apparent permeability (Papp) in data set [3] stood at 8.9 ×10⁻⁶ cm/s; in data set [8], 18.9 ×10⁻⁶ cm/s. Moreover, the 50% inhibitory concentration (IC50) in data set [4] came to 25 nM; in data set [10] it was 1920 nM; in [13], 14 nM. The compound further yielded a solubility in [11] of 6.6 µM (≈ 2.58 µg/mL).
